Legend:
strain MNH05026 = test: Antibiotic sensitivity test by disk diffusion method, strain MNH05026; assay type: cell-based, Megasphaera sp.
Protocol: (§1) Antibiotic sensitivity tests of the strains MNH05026, MNH22004, and MNH27256: Antibiotic sensitivity tests were carried out on the strain MNH05026 by a disk diffusion method.

strain MNH22004 = test: Antibiotic sensitivity test by disk diffusion method, strain MNH22004; assay type: cell-based, Megasphaera sp.
Protocol: as §1

strain MNH27256 = test: Antibiotic sensitivity test by disk diffusion method, strain MNH27256; assay type: cell-based, Megasphaera sp.
Protocol: as §1

[1] = system: ectopic syngeneic liver cancer model; test: Therapeutic effect of MNH05026 in combination with Lenvatinib on liver cancer; assay type: in vivo, mouse; conditions: male BALB/c mice
Text: 104 male BALB/c mice were purchased, and inoculated with tumor cells after the quarantine was completed, to establish an ectopic syngeneic liver cancer model. The day of tumor cell inoculation was D1. […] Mice with abnormal tumor growth were discarded and the remaining mice were randomized into 10 groups according to the tumor volume on that day, with 7 mice per group. […] Group A was the Negative Control group, Group B was the positive control Lenvatinib group, Group J was the Lenvatinib+MNH05026 combination group, and Groups C-I received other test articles in combination with Lenvatinib. On the day of grouping, interventions were carried out according to the grouping. During the experiment, animal characteristics, tumor changes, tumor sizes, and mouse weights were monitored regularly. At the experimental endpoint, body weight changes, tumor volume changes, response rates, and tumor growth inhibition rates were analyzed.
(§2) Statistical analysis was performed using Two-Way ANOVA with Dunnett's multiple comparisons at the experimental endpoint. Significance of difference vs. the Control group: not significant (ns), p value≥0.05; *, p value<0.05; **, p value<0.01; ***, p value<0.001; ****, p value<0.0001.
as §2, with “FIGS. 17B and 17C present the mouse tumor volume data as mean±standard deviation (mm3). Statistical” for “Statistical”

Row | Molecule | Diameter of inhibition zone by MNH05026 (strain MNH05026) [mm] | Sensitivity or resistance of strain MNH05026 to the antibiotic (strain MNH05026) | Diameter of inhibition zone by MNH22004 (strain MNH22004) [mm] | Sensitivity or resistance of strain MNH22004 to the antibiotic (strain MNH22004) | Diameter of inhibition zone by MNH27256 (strain MNH27256) [mm] | Sensitivity or resistance of strain MNH27256 to the antibiotic (strain MNH27256) | Body weight during the experiment [1] | Response rate [1] [%] | Tumor volume at the experimental endpoint vs Control group [1]
1 | CC1(C)S[C@@H]2[C@H](NC(=O)[C@H](N)c3ccccc3)C(=O)N2[C@H]1C(=O)O [Ampicillin] | 19.91 | sensitive | 0 | resistant | 0 | resistant | – | – | –
2 | CO/N=C(\C(=O)N[C@@H]1C(=O)N2C(C(=O)O)=C(CSc3nc(=O)c(=O)[nH]n3C)CS[C@H]12)c1csc(N)n1 [Ceftriaxone] | 29.42 | sensitive | 12.78 | sensitive | 0 | resistant | – | – | –
3 | O=C(N[C@H](CO)[C@H](O)c1ccc([N+](=O)[O-])cc1)C(Cl)Cl [Chloramphenicol] | 37.02 | sensitive | 33.29 | sensitive | 34.45 | sensitive | – | – | –
4 | O=C(O)c1cn(C2CC2)c2cc(N3CCNCC3)c(F)cc2c1=O [Ciprofloxacin] | 37.66 | sensitive | 35.42 | sensitive | 34.69 | sensitive | – | – | –
5 | CC[C@H]1OC(=O)[C@H](C)[C@@H](O[C@H]2C[C@@](C)(OC)[C@@H](O)[C@H](C)O2)[C@H](C)[C@@H](O[C@@H]2O[C@H](C)C[C@H](N(C)C)[C@H]2O)[C@](C)(O)C[C@@H](C)C(=O)[C@H](C)[C@@H](O)[C@]1(C)O [Erythromycin] | 15.65 | sensitive | 21.03 | sensitive | 9.0 | sensitive | – | – | –
6 | COc1cc2nccc(Oc3ccc(NC(=O)NC4CC4)c(Cl)c3)c2cc1C(N)=O [Lenvatinib] | – | – | – | – | – | – | increased steadily | 85.71 | significant decrease
7 | CCC[C@@H]1C[C@@H](C(=O)N[C@@H]([C@H]2O[C@H](SC)[C@H](O)[C@@H](O)[C@H]2O)[C@@H](C)O)N(C)C1 [Lincomycin] | 38.99 | sensitive | 11.34 | sensitive | 8.81 | sensitive | – | – | –
8 | CN(C)[C@@H]1C(O)=C(C(N)=O)C(=O)[C@@]2(O)C(O)=C3C(=O)c4c(O)cccc4[C@@](C)(O)[C@H]3C[C@@H]12 [Tetracycline] | 21.44 | – | 10.48 | – | 17.75 | – | – | – | –
9 | Gentamicin | 13.97 | sensitive | 9.00 | sensitive | 9.37 | sensitive | – | – | –
10 | Penicillin | 29.75 | sensitive | 0 | resistant | 0 | resistant | – | – | –
11 | Trimethoprim-sulfamethoxazole | 10.65 | sensitive | 17.08 | sensitive | 12.75 | sensitive | – | – | –

Source: patent publication US20250288619A1, “PHARMACEUTICAL COMPOSITION, MEGASPHAERA, AND USE THEREOF” (MOON (GUANGZHOU) BIOTECH CO., LTD., priority 2022, published 2025)
